Laboratory results published in patent publication US20230114123A1, “METHOD OF STIMULATING ASYMMETRIC DIVISION OF SATELLITE STEM CELLS” (Ottawa Hospital Research Institute, priority 2017, published 2023).

How the values were obtained:
[1] = test system: regenerating mdx TA muscles; experiment: Cardiotoxin-induced injury of TA muscle in mdx mice, intramuscular treatment; format: in vivo, mouse
Text: Previously, the inventors observed that dystrophin- or Dag1-deficient muscles generate reduced numbers of Pax7-expressing and Myog-expressing cells following CTX-injury.
PTP1b inhibitor was concurrently administered with cardiotoxin into mdx TA muscles and supplemented again 2 days after the injury (FIG. 13A). To assess the muscle stem cell function after injury and the regenerative capacity of the treated mdx muscles, the inventors examined the histology of the regenerating muscles 10 days post cardiotoxin injection. Whereas the control vehicle treated muscles still contained large areas of necrotic fibers (msIgG+), the muscles treated with PTP1b inhibitors were better regenerated as evidenced by the presence of 50% […] Myh3-expressing myofibers (FIG. 13B). […] These findings are consistent with PTP1b inhibition inducing an increase in EGFR signaling and accelerated de novo myofiber formation in regenerating mdx muscles (FIG. 14).
Electroporation and Cardiotoxin Injury. Intramuscular (i.m.) cardiotoxin injections (Latoxan, 50 μl of 10 μM solution in saline) were injected directly into the right TA muscle through the skin under general anesthesia. For pharmacological inhibition, Lapatinib ditosylate (1 mM in DMSO; Santa Cruz Biotechnology), the PTP1b inhibitor CAS 765317-72-4 (10 mM in DMSO; Santa Cruz Biotechnologies) was mixed into the cardiotoxin solution for a final concentration of 1 μM or 20 μM, respectively; equal dilution of DMSO was used as vehicle control. Supplemental injection of inhibitors (20 μL of 2.5 μM of Lapatibin or 50 μM of PTP1b inhibitor diluted in saline) was performed 2 days after cardiotoxin injection.
Muscle samples were embedded in OCT embedding compound and frozen in liquid nitrogen cooled isopentane and cryosectioned in 12-μm slices. Cross-sections were washed once with PBS and fixed in 2% PFA 10 min, permeabilized with 0.1% Triton X-100/0.15 M Glycine/PBS for 10 min and extensively washed with PBS. Samples were blocked using M.O.M. Blocking reagent (Vector) for 2 h followed by additional blocking in 5% NGS/2% BSA at 4° C. over night. Primary antibodies were applied in blocking at 4° C. over night. Samples were washed extensively in PBS and secondary antibodies were applied in PBS (Alexa Flour 546, 647) for 1 h at room temperature. Following PBS washes, cross-sections were counterstained with DAPI ([…]) for 10 min and mounted with Permaflour (Fisher).
Histological Analysis of Muscle Sections. For Fiber type analysis, non-fixed samples were washed with PBS and blocked in 10% normal goat serum (NGS) for 1 hr at room temperature. Primary antibodies were applied in 10% NGS for 2 h at room temperature. Sections were washed extensively with PBS and secondary antibodies were applied in PBS for 1 h at room temperature. Following PBS washes, sections were counterstained with DAPI for 10 min and mounted with Permaflour. Antibodies were as follows: mouse anti-MyH3 (clone F1.652, DSHB), mouse anti-MyH4 (clone BF-F3, DSHB).
For analysis of myofiber Feret's diameter, non-fixed samples were washed with PBS and stained with Wheat Germ Agglutinin Alexa 647 conjugate (Fisher) for 1 h at room temperature. Samples were washed once with PBS and counterstained with DAPI. Samples were washed with PBS and mounted with Permaflour. Images were taken immediately following staining. Minimum fiber Feret measurement was performed using the SMASH software in MATLAB 2015a as described in Smith, L. R., and Barton, E. R. (2014) SMASH—semi-automatic muscle analysis using segmentation of histology: a MATLAB application. Skelet. Muscle 4, 21, which is incorporated herein by reference. Samples with significant staining artifacts were excluded from automated analyses.

mdx satellite cells [2] = experiment: Myog-expressing / myogenic cells on mdx myofibers at 72 h; format: cell-based, mouse; settings: 72 h of mdx myofiber culture, FIG. 4D
Description: EDL fiber Culture and siRNA Transfection. […] Briefly, EDL were carefully dissected and incubated in DMEM with 2% L-glutamine, 4.5% glucose, and 110 mg/mL sodium pyruvate (Gibco) containing 0.2% collagenase I (Sigma) for 45 min. Myofibers were isolated using gentle trituration with a glass pipet. Myofibers were cultured for 36, 42, or 72 h in DMEM containing 20% FBS (Wisent), 1% chick embryo extract (MP Biomedicals), and 2.5 ng/ml bFGF (Cedarlane). For pharmacological inhibition, Lapatinib ditosylate (1 mM in DMSO; Santa
Cruz Biotechnology), PTP1b inhibitor CAS 765317-72-4 (10 mM in DMSO; Santa Cruz Biotechnologies) was added to the culture medium for a final concentration of 1 μM or 10 μM, respectively; equal dilution of DMSO was used as vehicle control.

mdx satellite cells [3] = experiment: Mitotic orientation by p-Aurk staining, mdx myofibers 36 h; format: cell-based, mouse; settings: 36 h culture, recombinant EGF vs vehicle, FIG. 3B
Description: However, the rate of abnormal cell divisions in mdx satellite cells as evidenced by abnormal patterns of p-Aurk staining was unaffected by EGF stimulation. This observation implies that cell cycle dysregulation is not completely rescued by polarity signaling alone. […] Therefore, to assess whether EGF-driven asymmetric divisions could ameliorate the reduced generation of myogenic progenitors in mdx cultures, single EDL myofibers from mdx mice were cultured for 72 h and immunostained for the expression of Myog.
Characterization of Satellite Cell Divisions. The orientation of mitotic spindles in satellite cells was measured as described in Dumont et al. (2015). Single myofibers were fixed after 36 h of in vitro culture, as described above. Satellite cells were identified by Pax7 expression in the nucleus, as detected by immunofluorescene. Pax7 staining becomes cytoplasmic in mitotic satellite cells after the dissociation of the nuclear envelope, but is still discernable. […] Mitotic satellite cells with p-Aurk staining patterns that were not observed in WT cells, including monopolar, multipolar (>2), and abscission defects were quantified as abnormal. Mitotic orientations were manually counted according to the angle between the mitotic spindle and the tangential plane of the satellite cell's attachment point to the myofiber.

satellite cells = experiment: Mitotic orientation by p-Aurk centrosome staining, EDL myofibers 36 h; format: cell-based, mouse; settings: 36 h culture, recombinant EGF vs vehicle, FIGS. 2B and 2C
Description: The inventors cultured single EDL myofibers for 36 h and satellite cell centrosomes were detected by immunostaining for phosphorylated aurora kinase (p-Aurk).
Characterization of Satellite Cell Divisions. The orientation of mitotic spindles in satellite cells was measured as described in Dumont et al. (2015). Single myofibers were fixed after 36 h of in vitro culture, as described above. Satellite cells were identified by Pax7 expression in the nucleus, as detected by immunofluorescene. Pax7 staining becomes cytoplasmic in mitotic satellite cells after the dissociation of the nuclear envelope, but is still discernable. Mitotic satellite cells were identified by positive p-Aurk staining, which labels cells from pro-metaphase to cytokinesis. Mitotic satellite cells with p-Aurk staining patterns that were not observed in WT cells, including monopolar, multipolar (>2), and abscission defects were quantified as abnormal. Mitotic orientations were manually counted according to the angle between the mitotic spindle and the tangential plane of the satellite cell's attachment point to the myofiber.

[4] = test system: phosphorylated EGFR (p-EGFR); experiment: p-EGFR immunostaining of mdx EDL myofibers; format: cell-based, mouse; settings: 1 h with or without recombinant EGF 100 ng/mL, FIG. 3A
Description: Therefore, the inventors conclude that that EGFR signaling occurs normally in mdx satellite cells.
To assess the signaling status of EGFR in quiescent satellite cells, EDL muscles were fixed in 4% PFA immediately post-dissection. Myofiber bundles were teased from the fixed muscles by tweezers.
Immunostaining and Antibodies. EDL myofibers were fixed for 10 min in 2% PFA and washed with PBS. Fibers were blocked and permeablized in horse serum blocking buffer (5% horse serum, 1% BSA (Sigma), and 0.5% Triton X-100 (Sigma) in PBS) for 1 h at room temperature or at 4° C. over night. Primary antibodies were applied in blocking solution for 2 h at room temperature or at 4° C. over night. Samples were subsequently washed with PBS and stained with appropriate fluorescently labeled secondary antibodies (Alexa fluor 488, 546, or 647) for 1 h at room temperature. After washing with PBS, samples were mounted with Permafluor (Fisher).

| Compound | fewer Myh3-expressing myofibers vs vehicle ([1]; PTP1b inhibitor with cardiotoxin and again 2 days after, 10 days post injection, FIG. 13B) | increase in muscle mass compared to vehicle treated controls ([1]; PTP1b inhibitor, 10 days post cardiotoxin, FIG. 13C) | numbers of satellite cells (Pax7+) ([1]; PTP1b inhibitor, 10 days post cardiotoxin, FIG. 13F) | increase on average in Feret's diameters of myofibers compared to control muscles ([1]; PTP1b inhibitor, 10 days post cardiotoxin, FIGS. 13D and E) | increase in total numbers of myogenic cells (mdx satellite cells [2]) | numbers of apicobasal orientated mitotic centrosomes, mdx satellite cells (mdx satellite cells [3]) | rate of abnormal cell divisions (abnormal patterns of p-Aurk staining), mdx satellite cells (mdx satellite cells [3]) | increase in the proportion of mitotic cells aligned along the apicobasal axis (satellite cells) | increase in Pax7-expressing cells ([1]; 10 ng recombinant EGF IM at CTX injury and 2 d after, 10 days post injury, FIG. 5B) | increase in the numbers of Myog-expressing cells ([1]; 10 ng recombinant EGF IM at CTX injury and 2 d after, 10 days post injury, FIG. 5C) | Feret's diameter of regenerating myofibers ([1]; EGF-treated vs vehicle-injected controls, 10 days post injury) | p-EGFR staining in mdx fibers [4] |
| --- | --- | --- | --- | --- | --- | --- | --- | --- | --- | --- | --- | --- |
| CCc1oc2cc(S(=O)(=O)Nc3ccc(S(=O)(=O)Nc4nccs4)cc3)ccc2c1C(=O)c1cc(Br)c(O)c(Br)c1 [PTP1b inhibitor, 3-(3,5-dibromo-4-hydroxy-benzoyl)-2-ethyl-benzofuran-6-sulfonicacid-(4-(thiazol-2-ylsulfamyl)-phenyl)-amide, reference compound] | 50% | 14% | increased numbers of satellite cells | 2 fold | – | – | – | – | – | – | – | – |
| EGF: human recombinant EGF protein (Life Technologies), direct activator of the EGFR pathway | – | – | – | – | about 14% | increased numbers of apicobasal orientated mitotic centrosomes | unaffected | 50% | 26% | 50% | an increase in Feret's diameter | P-EGFR was only observed in mdx fibers treated with EGF |
